Measurements from PMC11919836, “Multi-omics analysis reveals Jianpi formula-derived bioactive peptide-YG-22 potentially inhibited colorectal cancer via regulating epigenetic reprogram and signal pathway regulation” (Frontiers in Genetics, 2025).
Where no end group is shown, it is not given here.

Tests used:
[1] = system: HCT116 cells; test: CCK-8 cell viability assay of candidate peptides; assay type: cell-based; details: peptide 5 mg/mL, 24 h, CCK-8, absorbance 450 nm, mean ± SEM n = 3, P < 0.01 vs control
From the text: (§1) After comparing the differential expressed peptides between two treatment groups: chemotherapy alone (n = 5) and chemotherapy combined with Jianpi formula (n = 5). Six candidate peptides were finally screened out, including YP-16 (YGRKKRRQRRR-GPSVP), YP-17 (YGRKKRRQRRR-OLTSGP), YG-22 (YGRKKRRQRRR-DGSPGKDGVRG), YM-22 (YGRKKRRQRRR-LGEAFDGARDM), YP-23 (YGRKKRRQRRR-MEPLGRQLTSGP), and YD-28 (YGRKKRRQRRR-EDPQGDAAOKTDTSHHD). And then, the candidate peptides were synthesized based on their amino acid sequences to evaluate their effects on HCT116 cell viability. Briefly, a total of 1,500 cells per well were seeded in 96-well plates and incubated overnight in a culture medium under appropriate conditions. Following incubation, the cells were treated with indicated peptides (5 mg/mL) at the desired concentrations for 24 h. Cell viability was then assessed using the CCK-8 assay (Dojindo, Japan), following the manufacturer’s instructions. After adding the CCK-8 reagent and incubating for the recommended time, absorbance was measured at 450 nm using a spectrophotometric plate reader (Bio-Tek, United States). Furthermore, HCT116 cells were treated with varying concentrations of YG-22 (0, 2, 4, 6, 8, and 10 mg/mL) for either 24 or 48 h to determine the IC50 values. After the incubation with YG-22 (IC50 concentration) for 48 h, the HCT116 cells were collected for subsequent analyses, including RNA sequencing (RNA-seq) to evaluate gene expression profiles, liquid chromatography-mass spectrometry (LC-MS) for metabolite analysis, assay for transposase-accessible chromatin using sequencing (ATAC-seq) to assess chromatin accessibility, and chromatin immunoprecipitation sequencing (ChIP-seq) to study the H3K4Me3 profiling and NF-κB protein-DNA interactions.
There were at least three biological replicates, excluding ATAC-seq and ChIP-seq analysis, for each group. Cell viability evaluation data were reported as means ± SEM. Student’s t-test (two-tailed) or one-way ANOVA with Bonferroni’s multiple comparison test were used. P-values of <0.05, or 0.01, or 0.001 were deemed significant.

[2] = system: HCT116 cells; test: Transcriptome analysis (RNA-seq) of YG-22-treated cells; assay type: cell-based; details: HCT116, YG-22 1.769 mg/mL, 48 h, treated vs control
From the text: After comparing the differential expressed peptides between two treatment groups: chemotherapy alone (n = 5) and chemotherapy combined with Jianpi formula (n = 5). Six candidate peptides were finally screened out, including YP-16 (YGRKKRRQRRR-GPSVP), YP-17 (YGRKKRRQRRR-OLTSGP), YG-22 (YGRKKRRQRRR-DGSPGKDGVRG), YM-22 (YGRKKRRQRRR-LGEAFDGARDM), YP-23 (YGRKKRRQRRR-MEPLGRQLTSGP), and YD-28 (YGRKKRRQRRR-EDPQGDAAOKTDTSHHD). And then, the candidate peptides were synthesized based on their amino acid sequences to evaluate their effects on HCT116 cell viability. […] Cell viability was then assessed using the CCK-8 assay (Dojindo, Japan), following the manufacturer’s instructions. After adding the CCK-8 reagent and incubating for the recommended time, absorbance was measured at 450 nm using a spectrophotometric plate reader (Bio-Tek, United States). […]
For transcriptome analysis, treated and control HCT116 cells (1 × 10^5) are collected, and total RNA is extracted using RNA isolation kit (Qiagen, Germany) following the manufacturer’s instructions. Total RNA samples were prepared with an initial concentration of at least 20 ng/μL and a total quantity of at least 2 μg, ensuring an A260/A280 ratio between 1.9 and 2.1 for quality control. mRNA was isolated using oligo-dT beads to capture polyA-tailed transcripts, followed by thermal fragmentation into 200–300 bp fragments. […]

[3] = system: HCT116 cells; test: Metabolomics analysis (LC-MS) of YG-22-treated cells; assay type: cell-based; details: HCT116, YG-22 1.769 mg/mL, 48 h
From the text: as §1
For metabolomics analysis, treated and control HCT116 cells (1 × 10^5) are collected, washed with cold PBS, and lysed using 80% methanol to extract metabolites. The lysates are centrifuged at 12,000–15,000 × g at 4°C, and the supernatants are stored at −80°C. Metabolite profiling is performed using liquid chromatography-mass spectrometry (LC-MS) with a reverse-phase LC column and gradient elution, followed by high-resolution mass spectrometry in positive and/or negative ion modes. Data preprocessing involves peak detection, alignment, normalization, and filtering using software such as XCMS or Compound Discoverer. Metabolites are identified by matching m/z values, retention times, and fragmentation patterns to databases like HMDB or METLIN, with MS/MS used for structural confirmation. […] The results are visualized with heatmaps, volcano plots, and pathway diagrams, providing insights into metabolic changes induced by treatment.

[4] = system: HCT116 cells; test: Chromatin accessibility analysis (ATAC-seq) of YG-22-treated cells; assay type: cell-based; details: HCT116, YG-22 1.769 mg/mL, 48 h
From the text: as §1, with “After the incubation with YG-22 (IC50 concentration) for 48 h, the HCT116 cells were collected for subsequent analyses, including RNA sequencing (RNA-seq) to evaluate gene expression profiles, liquid chromatography-mass spectrometry (LC-MS) for metabolite analysis, assay for transposase-accessible chromatin using sequencing (ATAC-seq) to assess chromatin accessibility, and chromatin immunoprecipitation sequencing (ChIP-seq) to study the H3K4Me3 profiling and NF-κB protein-DNA interactions.” left out

[5] = system: H3K4Me3 in HCT116 cells; test: ChIP-seq H3K4Me3 profiling of YG-22-treated cells; assay type: cell-based, human; details: 48 h
From the text: as §1
ChIP-seq analysis for H3K4Me3 profiling and NF-κB protein-DNA interactions was conducted using a combination of chromatin immunoprecipitation and high-throughput sequencing. HCT116 cells (5 × 10^6) were fixed with 1% formaldehyde to crosslink proteins and DNA, followed by quenching with glycine and lysis to isolate chromatin. The chromatin was sonicated to fragment DNA, and immunoprecipitation was performed using specific antibodies for H3K4Me3 and NF-κB, coupled with Protein A + G magnetic beads. The immunoprecipitated complexes were reverse crosslinked, and DNA was purified. High-throughput sequencing libraries were prepared through end repair, A-tailing, adapter ligation, and PCR amplification, targeting fragment sizes of 100–300 bp. Sequencing was performed on the Illumina NovaSeq 6,000 platform.
Bioinformatics analysis included quality control using FastQC, adapter trimming with fastp, and alignment of clean reads to the human reference genome (hg38) using Bowtie2. Peak calling was conducted with MACS2 to identify binding sites and histone modifications, followed by annotation using ChIPseeker. Motif analysis, using MEME and HOMER, identified enriched motifs within peak regions, particularly for NF-κB binding. Functional enrichment analysis was carried out with KEGG pathways to link identified peaks to pathways. Visualization tools, such as heatmaps and Circos plots, were used to highlight binding site distribution and signal enrichment across the genome, providing insights into chromatin modifications and transcription factor interactions under experimental conditions.

[6] = system: NF-κB in HCT116 cells; test: ChIP-seq of NF-κB binding in YG-22-treated cells; assay type: cell-based, human
From the text: as §1, with “interactions. […]” for “interactions.”
Bioinformatics analysis included quality control using FastQC, adapter trimming with fastp, and alignment of clean reads to the human reference genome (hg38) using Bowtie2. […]

[7] = HCT116, YG-22 1.769 mg/mL, ChIP-seq

Question: With YGRKKRRQRRR-EDPQGDAAOKTDTSHHD [YD-28] as the substance, how does the “effect on HCT116 cell viability” value [1] read?
Answer: notably reduced cell viability

Question: For “YGRKKRRQRRR-LGEAFDGARDM (YGRKKRRQRRRLGEAFDGARDM) [YM-22]”, which “effect on HCT116 cell viability” value [1] is on record?
Answer: notably reduced cell viability

Question: With YGRKKRRQRRR-OLTSGP [YP-17] as the substance, how does the “effect on HCT116 cell viability” value [1] read?
Answer: notably reduced cell viability

Question: Which results are given for YGRKKRRQRRRDGSPGKDGVRG [YG-22]?
Answer: effect on HCT116 cell viability [1]: notably reduced cell viability; downregulated genes (DEGs) [2]: 252; upregulated genes (DEGs) [2]: 236; downregulated metabolites, negative ion (NEG) mode [3]: 127; downregulated metabolites, positive ion (POS) mode [3]: 70; upregulated metabolites, negative ion (NEG) mode [3]: 121; upregulated metabolites, positive ion (POS) mode [3]: 69; downregulated differential chromatin accessibility peaks [4]: 1,697; upregulated differential chromatin accessibility peaks [4]: 78; downregulated differential H3K4me3 peaks [5, 7]: 385; upregulated differential H3K4me3 peaks [5, 7]: 97; intronic H3K4me3 peaks ([5]; HCT116, YG-22-treated, control 5.2%): 4.5%; intergenic H3K4me3 peaks ([5]; HCT116, YG-22-treated, control 7.1%): 6.3%; promoter-associated H3K4me3 peaks ([5]; HCT116, YG-22-treated, control 86.3%): 87.8%; downregulated NF-κB peaks ([6]; HCT116, YG-22, 48 h, ChIP-seq): 36; upregulated NF-κB peaks ([6]; HCT116, YG-22, 48 h, ChIP-seq): 26; NF-κB peaks in distal intergenic regions ([6]; HCT116, YG-22-treated, 48 h, control 28.9%): 38.4%
